Test results reported in patent publication US20040063764A1, “Halogen compounds having thrombopoietin receptor agonism” (priority 2001, published 2004).
pEC50: −log10 of the molar value.

Target: T1, human TPO receptor (Homo sapiens, UniProt P40238)
T1 construct: expressed in transfected cells; host or cells: BaF-B03 (murine IL-3 dependent pro-B cell line); the resulting line is BaF/hTPOR
T1 sequence (P40238 26-635): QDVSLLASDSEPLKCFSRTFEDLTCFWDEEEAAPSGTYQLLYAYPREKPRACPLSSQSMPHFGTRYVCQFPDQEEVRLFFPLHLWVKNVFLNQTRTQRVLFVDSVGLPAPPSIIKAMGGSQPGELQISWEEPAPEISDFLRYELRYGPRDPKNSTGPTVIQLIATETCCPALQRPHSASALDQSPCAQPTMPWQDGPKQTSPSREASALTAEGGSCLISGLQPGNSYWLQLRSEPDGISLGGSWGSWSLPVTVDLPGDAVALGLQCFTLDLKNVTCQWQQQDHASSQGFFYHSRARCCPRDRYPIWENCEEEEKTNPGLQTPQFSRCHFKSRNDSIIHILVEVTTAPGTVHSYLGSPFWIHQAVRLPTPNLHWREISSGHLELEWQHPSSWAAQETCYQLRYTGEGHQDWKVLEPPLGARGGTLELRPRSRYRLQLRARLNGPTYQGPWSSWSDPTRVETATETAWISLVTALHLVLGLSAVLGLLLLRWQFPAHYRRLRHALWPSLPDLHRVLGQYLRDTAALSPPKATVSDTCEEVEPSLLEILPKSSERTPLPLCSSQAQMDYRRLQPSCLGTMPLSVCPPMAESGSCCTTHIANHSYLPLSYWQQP
Test: Thrombopoietic activity: proliferation of TPO dependent BaF/hTPOR cell line (WST-1)
Assay type: cell-based
Conditions: BaF/hTPOR cells, 20 hours incubation then WST-1 for 4 hours, absorbance at 450 nm, ED50 = half concentration of the concentration showing the maximum thrombopoietic activity
Text: The TPO dependent BaF/hTPOR cell line which was established by introducing human TPO receptor into BaF-B03 cells according to Collins et al (J. Cell. Physiol., 137:293-298 (1988)) was used to test the thrombopoietic activity of the present compound. The DNA sequences and encoded peptide sequences for human TPO receptor have been described by Vigon et al (Proc. Natl. Acad. Sci. USA, 89:5640-5644 (1992)). TPO dose not have any ability to support proliferation of interlukin-3 dependent parental cell line BaF-B03. BAF/hTPOR cells were maintained in RPMI medium and 10% WEHI-3 conditioned medium. These cells were washed once with PBS and resuspended in RPMI medium without WHEHI-3 conditioned medium and seeded into each well of 96-well microtiter plates at a density of 5×10^4 cells per well in the presence of the present compound or TPO. After incubation at 37° C. for 20 hours in the 5% CO2 incubator, WST-1 reagent (Takara Biomedicals, Japan) was added to each wells and the cells were further incubated for 4 hours. The absorbance at 450 nm was measured. Table 7 exemplifies the ED50 for tested compounds of the present invention, wherein the ED50 is the half concentration of the concentration showing the maximum thrombopoietic activity.

| pEC50 | pEC50 (Table 7) | Structure (SMILES) |
| --- | --- | --- |
| 8.05 | – | CC(C)(C)CCc1cccc(-c2csc(NC(=O)c3ccc(/C=C4\SC(=O)NC4=O)cc3)n2)c1F [Compound A-32] |
| 7.64 | – | O=C1NC(=O)/C(=C/c2ccc(C(=O)Nc3nc(-c4cccc(Cc5ccccc5)c4F)cs3)cc2)S1 [Compound A-34] |
| 6.96 | – | O=C1NC(=O)/C(=C/c2ccc(C(=O)Nc3nc(-c4cccc(-c5cccnc5)c4F)cs3)cc2)S1 [Compound A-30] |
| 7.55 | – | O=C1NC(=O)/C(=C/c2ccc(C(=O)Nc3nc(-c4cccc(C5CCCC5)c4F)cs3)cc2)S1 [Compound A-38] |
| 7.89 | – | COC(c1cccc(-c2csc(NC(=O)c3ccc(/C=C4\SC(=O)NC4=O)cc3)n2)c1F)C1CCCCC1 (stereo not shown) [Compound A-51] |
| 8.00 | – | CCCCc1cccc(-c2csc(NC(=O)c3ccc(/C=C4\SC(=O)NC4=O)cc3)n2)c1F [Compound A-28] |
| 7.24 | – | CCOc1cccc(-c2csc(NC(=O)c3ccc(/C=C4\SC(=O)NC4=O)cc3)n2)c1F [Compound A-31] |
| 7.77 | – | O=C1NC(=O)/C(=C/c2ccc(C(=O)Nc3nc(-c4cccc(C5CCCCC5)c4F)cs3)cc2)S1 [Compound A-37] |
| 7.43 | – | COCCc1cccc(-c2csc(NC(=O)c3ccc(/C=C4\SC(=O)NC4=O)cc3)n2)c1F [Compound A-42] |
| 7.08 | – | CCOC(=O)CCCCc1cccc(-c2csc(NC(=O)c3ccc(/C=C4\SC(=O)NC4=O)cc3)n2)c1F [Compound A-44] |
| 7.55 | – | COC(c1cccc(-c2csc(NC(=O)c3ccc(/C=C4\SC(=O)NC4=O)cc3)n2)c1F)C(C)C (stereo not shown) [Compound A-50] |
| 7.80 | – | CCCc1c(Br)ccc(-c2csc(NC(=O)c3ccc(/C=C4\SC(=O)NC4=O)cc3)n2)c1F [Compound A-29] |
| 7.16 | – | COCCOCCc1cccc(-c2csc(NC(=O)c3ccc(/C=C4\SC(=O)NC4=O)cc3)n2)c1F [Compound A-43] |
| 7.64 | – | CCOCCc1cccc(-c2csc(NC(=O)c3ccc(/C=C4\SC(=O)NC4=O)cc3)n2)c1F [Compound A-35] |
| 7.89 | – | O=C1NC(=O)/C(=C/c2ccc(C(=O)Nc3nc(-c4cccc(OC(F)(F)F)c4F)cs3)cc2)S1 [Compound A-46] |
| 7.92 | – | O=C1NC(=O)/C(=C/c2ccc(C(=O)Nc3nc(-c4cccc(CCc5ccccc5)c4F)cs3)cc2)S1 [Compound A-33] |
| 7.13 | – | CCOC(=O)CCCCCc1cccc(-c2csc(NC(=O)c3ccc(/C=C4\SC(=O)NC4=O)cc3)n2)c1F [Compound A-45] |

Second part, the compound before the results:

| Structure (SMILES) | pEC50 | pEC50 (Table 7) |
| --- | --- | --- |
| COc1ccc(-c2csc(NC(=O)c3ccc(/C=C4\SC(=O)NC4=O)cc3)n2)c(F)c1 [Compound A-3] | 7.12 | – |
| O=C1NC(=O)/C(=C/c2ccc(C(=O)Nc3nc(-c4cccc(F)c4F)cs3)cc2)S1 [Compound A-5] | 7.60 | – |
| O=C1NC(=O)/C(=C/c2ccc(C(=O)Nc3nc(-c4ccc(-c5ccccc5)cc4F)cs3)cc2)S1 [Compound A-8] | 6.46 | – |
| O=C1NC(=O)C(=Cc2ccc(C(=O)Nc3nc(-c4ccc(C(F)(F)F)c(Br)c4F)cs3)cc2)S1 [Compound A-21] | – | 6.45 |
| COc1cccc(-c2csc(NC(=O)c3ccc(C=C4SC(=O)NC4=O)cc3)n2)c1F [Compound A-15] | – | 7.14 |
| CCCCOc1cccc(-c2csc(NC(=O)c3ccc(C=C4SC(=O)NC4=O)cc3)n2)c1F [Compound A-24] | – | 7.31 |
| O=C1NC(=O)/C(=C/c2ccc(C(=O)Nc3nc(-c4cccc(-c5ccccc5)c4F)cs3)cc2)S1 [Compound A-13] | 7.60 | – |
| CCCCCc1cccc(-c2csc(NC(=O)c3ccc(C=C4SC(=O)NC4=O)cc3)n2)c1F [Compound A-17] | – | 7.89 |
| Cc1cccc(-c2csc(NC(=O)c3ccc(C=C4SC(=O)NC4=O)cc3)n2)c1F [Compound A-16] | – | 7.60 |
| O=C1NC(=O)/C(=C/c2ccc(C(=O)Nc3nc(-c4cc(F)ccc4F)cs3)cc2)S1 [Compound A-2] | 7.07 | – |
| O=C1NC(=O)/C(=C/c2ccc(C(=O)Nc3nc(-c4ccc(Br)cc4F)cs3)cc2)S1 [Compound A-6] | 7.42 | – |
| CCCCCCc1cccc(-c2csc(NC(=O)c3ccc(C=C4SC(=O)NC4=O)cc3)n2)c1F [Compound A-22] | – | 8.15 |
| O=C1NC(=S)S/C1=C\c1ccc(C(=O)Nc2nc(-c3cccc(C(F)(F)F)c3F)cs2)cc1 [Compound A-1] | 8.10 | – |
| O=C1NC(=O)/C(=C/c2ccc(C(=O)Nc3nc(-c4ccc(C(F)(F)F)cc4F)cs3)cc2)S1 [Compound A-4] | 7.59 | – |
| O=C1NC(=O)/C(=C/c2ccc(C(=O)Nc3nc(-c4cc(F)c(F)c(F)c4F)cs3)cc2)S1 [Compound A-10] | 7.12 | – |
| O=C1NC(=O)C(=Cc2ccc(C(=O)Nc3nc(-c4cccc(Br)c4F)cs3)cc2)S1 [Compound A-14] | – | 7.59 |
| CC(C)CCCCc1cccc(-c2csc(NC(=O)c3ccc(C=C4SC(=O)NC4=O)cc3)n2)c1F [Compound A-26] | – | 8.15 |
| O=C1NC(=O)C(=Cc2ccc(C(=O)Nc3nc(-c4ccc(F)c(-c5ccccc5)c4F)cs3)cc2)S1 [Compound A-19] | – | 7.16 |
| CCc1cccc(-c2csc(NC(=O)c3ccc(C=C4SC(=O)NC4=O)cc3)n2)c1F [Compound A-25] | – | 7.74 |
| O=C1NC(=O)C(=Cc2ccc(C(=O)Nc3nc(-c4ccc(F)c(Br)c4F)cs3)cc2)S1 [Compound A-18] | – | 7.08 |
| CCCCCc1c(F)ccc(-c2csc(NC(=O)c3ccc(C=C4SC(=O)NC4=O)cc3)n2)c1F [Compound A-23] | – | 7.12 |
| O=C1NC(=O)C(=Cc2ccc(C(=O)Nc3nc(-c4cccc(-c5ccc(F)cc5)c4F)cs3)cc2)S1 [Compound A-20] | – | 7.55 |
| Cc1ccc(-c2csc(NC(=O)c3ccc(/C=C4\SC(=O)NC4=O)cc3)n2)c(F)c1 [Compound A-7] | 7.15 | – |
